Measurements as given in patent US9249129B2, “Morpholino substituted urea derivatives as mTOR inhibitors” (CELLZOME LIMITED, priority 2010, dated 2016).
Read-outs that look alike come from different tables or passages of the source.

What was measured:
[1] = target: T1, DNA-dependent protein kinase (DNA-PK) (Homo sapiens, UniProt P78527); assay: kinobeads assay, DNA-PK (dot blot detection); format: binding
T1 construct: endogenous in cells; host or cells: Jurkat cells (ATCC TIB-152, clone E6-1), lysate
How it was run: (§1)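 Jurkat cell lysate (5 mg/ml protein) was incubated with test compounds and kinobeads (immobilized phenylthiazole and phenylmorpholin-chromen ligands) for 2 h in the cold with shaking. Bead-bound kinase was SDS-eluted and quantified by antibody dot blot with infrared detection. IC50 values came from dose-response curves.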

[2] = target: T2, PI3Kα (Homo sapiens, UniProt P42336); assay: kinobeads assay, PI3K alpha (dot blot detection); format: binding; settings: Table 4, read-out: Inhibition values (IC50) PI3Ka
T2 construct: endogenous in cells; host or cells: Jurkat cells (ATCC TIB-152) lysate, the only lysate described

[3] = target: T3, PI3K delta (PI3Kd) (Homo sapiens, UniProt O00329); assay: kinobeads assay, PI3K delta (dot blot detection); format: binding
T3 construct: endogenous in cells; host or cells: Jurkat cells (ATCC TIB-152, clone E6-1), lysate
How it was run: as §1

[4] = target: T4, PI3Kγ (Homo sapiens, UniProt P48736); assay: kinobeads assay, PI3K gamma (dot blot detection); format: binding; settings: Table 4, read-out: Inhibition values (IC50) PI3Kg
T4 construct: endogenous in cells; host or cells: Jurkat cells (ATCC TIB-152) lysate, the only lysate described

[5] = target: T5, mTOR (Homo sapiens, UniProt P42345); assay: mTOR kinobeads assay (dot blot detection); format: binding
T5 construct: endogenous in cells; host or cells: Jurkat cells (ATCC TIB-152, clone E6-1), lysate
How it was run: as §1

[6] = system: S6RP serine-240/244 phosphorylation in HEK293T/17 cells; assay: In vitro phospho-S6 cellular assay (pS6RP S240/244); format: cell-based; settings: Homo sapiens, Table 6, 2 hours, S6RP Ser240/244, read-out: pS6 (phospho-S6 cell assay data, activity level)
How it was run: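 HEK293T/17 cells in DMEM with 2% FCS treated with 8 compound concentrations (0.1% DMSO) for 2 h at 37 °C, then lysed. Phospho-S6RP Ser240/244 or phospho-Akt Ser473 quantified by MesoScale sandwich immunoassay with Sulfo-Tag detection; IC50 from variable-slope sigmoidal fit.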

[7] = target: T6, PI3Kβ (Homo sapiens, UniProt P42338); assay: kinobeads assay, PI3K beta (dot blot detection); format: binding; settings: Table 4, read-out: Inhibition values (IC50) PI3Kb
T6 construct: endogenous in cells; host or cells: Jurkat cells (ATCC TIB-152) lysate, the only lysate described

[8] = Table 4, read-out: Inhibition values (IC50) DNAPK
[9] = Table 4, read-out: Inhibition values (IC50) PI3Kd
[10] = Table 4, read-out: Inhibition values (IC50) mTOR
[11] = Table 2, Jurkat cell lysate, read-out: Inhibition values (IC50) DNAPK
[12] = Table 2, Jurkat cell lysate, read-out: Inhibition values (IC50) PI3Kd
[13] = Table 2, Jurkat cell lysate, read-out: Inhibition values (IC50) mTor

T1 sequence (P78527 whole entry): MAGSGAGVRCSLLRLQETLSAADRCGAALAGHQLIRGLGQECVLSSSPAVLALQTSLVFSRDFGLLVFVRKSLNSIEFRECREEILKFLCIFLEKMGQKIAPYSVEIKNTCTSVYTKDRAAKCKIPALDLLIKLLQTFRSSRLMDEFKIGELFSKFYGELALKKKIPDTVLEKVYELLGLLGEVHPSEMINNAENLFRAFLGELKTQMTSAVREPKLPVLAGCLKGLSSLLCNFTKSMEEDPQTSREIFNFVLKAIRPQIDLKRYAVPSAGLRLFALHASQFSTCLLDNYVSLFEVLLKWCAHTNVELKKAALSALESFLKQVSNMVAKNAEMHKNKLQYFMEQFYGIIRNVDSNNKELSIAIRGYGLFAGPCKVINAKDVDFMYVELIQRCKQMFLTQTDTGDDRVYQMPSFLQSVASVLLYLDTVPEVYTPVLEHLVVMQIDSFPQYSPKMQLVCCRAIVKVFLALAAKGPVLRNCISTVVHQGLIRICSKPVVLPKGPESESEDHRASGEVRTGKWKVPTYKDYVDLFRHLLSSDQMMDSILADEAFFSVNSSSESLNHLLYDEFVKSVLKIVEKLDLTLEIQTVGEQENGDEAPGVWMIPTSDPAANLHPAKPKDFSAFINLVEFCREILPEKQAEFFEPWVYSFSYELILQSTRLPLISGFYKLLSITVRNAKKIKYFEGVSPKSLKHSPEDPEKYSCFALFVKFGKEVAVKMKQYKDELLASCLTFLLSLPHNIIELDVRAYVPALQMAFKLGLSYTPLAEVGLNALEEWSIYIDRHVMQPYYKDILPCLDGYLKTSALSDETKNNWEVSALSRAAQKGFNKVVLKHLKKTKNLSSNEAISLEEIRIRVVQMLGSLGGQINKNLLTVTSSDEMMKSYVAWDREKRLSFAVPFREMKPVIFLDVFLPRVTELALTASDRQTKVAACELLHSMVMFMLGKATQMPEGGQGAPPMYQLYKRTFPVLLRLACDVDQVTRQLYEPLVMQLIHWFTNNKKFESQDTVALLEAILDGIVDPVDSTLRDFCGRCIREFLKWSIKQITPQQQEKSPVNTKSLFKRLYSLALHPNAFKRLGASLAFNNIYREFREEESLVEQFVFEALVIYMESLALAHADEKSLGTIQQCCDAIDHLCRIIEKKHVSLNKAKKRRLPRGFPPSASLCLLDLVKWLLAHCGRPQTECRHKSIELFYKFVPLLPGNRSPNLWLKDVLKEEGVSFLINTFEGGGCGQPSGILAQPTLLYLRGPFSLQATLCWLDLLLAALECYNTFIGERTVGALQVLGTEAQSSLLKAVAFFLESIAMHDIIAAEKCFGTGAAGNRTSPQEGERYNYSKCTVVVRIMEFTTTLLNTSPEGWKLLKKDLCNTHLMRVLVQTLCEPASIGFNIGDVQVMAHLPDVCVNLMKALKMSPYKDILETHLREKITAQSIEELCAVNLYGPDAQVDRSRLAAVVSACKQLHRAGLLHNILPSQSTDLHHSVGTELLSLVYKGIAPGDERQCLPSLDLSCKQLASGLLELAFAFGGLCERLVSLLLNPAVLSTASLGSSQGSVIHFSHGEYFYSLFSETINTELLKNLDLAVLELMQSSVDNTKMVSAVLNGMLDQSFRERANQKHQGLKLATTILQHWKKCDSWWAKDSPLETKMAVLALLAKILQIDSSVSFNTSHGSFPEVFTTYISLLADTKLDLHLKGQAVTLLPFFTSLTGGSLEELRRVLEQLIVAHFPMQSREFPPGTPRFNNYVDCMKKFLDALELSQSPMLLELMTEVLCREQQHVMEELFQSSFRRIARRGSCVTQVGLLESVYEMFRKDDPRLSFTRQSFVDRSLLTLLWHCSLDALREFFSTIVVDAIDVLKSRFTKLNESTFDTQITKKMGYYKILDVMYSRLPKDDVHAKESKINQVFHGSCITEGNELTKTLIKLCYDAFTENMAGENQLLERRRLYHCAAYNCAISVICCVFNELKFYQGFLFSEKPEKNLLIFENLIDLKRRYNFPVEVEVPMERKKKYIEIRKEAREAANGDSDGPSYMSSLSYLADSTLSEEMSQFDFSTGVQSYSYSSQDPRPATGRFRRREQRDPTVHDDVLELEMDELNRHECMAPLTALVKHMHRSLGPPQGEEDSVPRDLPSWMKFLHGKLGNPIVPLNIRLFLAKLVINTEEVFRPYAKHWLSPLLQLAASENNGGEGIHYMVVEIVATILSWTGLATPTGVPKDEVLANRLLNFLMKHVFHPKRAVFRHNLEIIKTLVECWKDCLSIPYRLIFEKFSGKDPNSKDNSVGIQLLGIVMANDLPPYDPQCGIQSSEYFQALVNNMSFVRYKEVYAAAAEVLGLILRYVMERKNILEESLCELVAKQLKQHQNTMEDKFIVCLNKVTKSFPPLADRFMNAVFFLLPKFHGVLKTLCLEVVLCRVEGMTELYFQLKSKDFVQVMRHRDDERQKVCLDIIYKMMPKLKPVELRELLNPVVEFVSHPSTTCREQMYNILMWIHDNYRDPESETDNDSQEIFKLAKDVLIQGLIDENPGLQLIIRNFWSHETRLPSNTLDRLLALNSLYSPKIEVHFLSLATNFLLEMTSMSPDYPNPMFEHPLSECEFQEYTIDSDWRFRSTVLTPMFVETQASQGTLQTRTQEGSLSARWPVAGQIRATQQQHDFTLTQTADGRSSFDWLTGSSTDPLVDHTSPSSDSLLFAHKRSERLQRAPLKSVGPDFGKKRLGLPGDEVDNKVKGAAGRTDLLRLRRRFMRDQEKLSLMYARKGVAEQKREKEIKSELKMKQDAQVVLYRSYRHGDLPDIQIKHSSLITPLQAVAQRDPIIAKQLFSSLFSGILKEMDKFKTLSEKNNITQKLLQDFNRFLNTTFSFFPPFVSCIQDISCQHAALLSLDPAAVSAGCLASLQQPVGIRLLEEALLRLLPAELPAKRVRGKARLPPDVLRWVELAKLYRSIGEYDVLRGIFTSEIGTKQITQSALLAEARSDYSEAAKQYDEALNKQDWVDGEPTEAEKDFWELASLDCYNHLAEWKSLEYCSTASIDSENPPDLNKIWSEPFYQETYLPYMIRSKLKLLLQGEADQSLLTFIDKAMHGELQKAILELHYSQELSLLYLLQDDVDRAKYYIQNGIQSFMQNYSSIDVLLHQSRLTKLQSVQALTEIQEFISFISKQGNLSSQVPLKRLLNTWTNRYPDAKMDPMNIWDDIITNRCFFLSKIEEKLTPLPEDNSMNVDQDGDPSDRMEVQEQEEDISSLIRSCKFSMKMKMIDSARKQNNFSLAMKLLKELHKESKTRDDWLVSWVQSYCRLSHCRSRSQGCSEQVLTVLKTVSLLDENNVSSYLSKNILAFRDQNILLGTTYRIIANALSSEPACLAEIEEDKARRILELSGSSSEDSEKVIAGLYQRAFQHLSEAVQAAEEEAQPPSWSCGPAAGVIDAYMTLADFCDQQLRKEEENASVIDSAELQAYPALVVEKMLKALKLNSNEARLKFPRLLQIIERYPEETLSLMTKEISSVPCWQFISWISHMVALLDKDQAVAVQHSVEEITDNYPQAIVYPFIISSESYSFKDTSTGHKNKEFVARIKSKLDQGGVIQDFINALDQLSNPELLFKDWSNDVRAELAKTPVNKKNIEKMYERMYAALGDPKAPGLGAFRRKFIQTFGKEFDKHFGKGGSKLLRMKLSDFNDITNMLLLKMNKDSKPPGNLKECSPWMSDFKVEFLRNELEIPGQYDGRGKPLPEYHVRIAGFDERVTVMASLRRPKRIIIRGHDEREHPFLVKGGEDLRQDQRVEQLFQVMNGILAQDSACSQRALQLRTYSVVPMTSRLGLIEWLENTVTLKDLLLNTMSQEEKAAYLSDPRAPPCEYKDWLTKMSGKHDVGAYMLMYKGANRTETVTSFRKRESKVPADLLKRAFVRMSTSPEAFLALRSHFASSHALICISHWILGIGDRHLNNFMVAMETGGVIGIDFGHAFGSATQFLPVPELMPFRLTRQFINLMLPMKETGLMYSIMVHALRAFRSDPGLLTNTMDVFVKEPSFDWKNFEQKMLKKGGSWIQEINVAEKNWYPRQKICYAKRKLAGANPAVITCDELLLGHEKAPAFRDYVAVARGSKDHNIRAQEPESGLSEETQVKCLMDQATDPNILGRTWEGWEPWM

| SMILES | IC50 [1, 8] | IC50 [2] | IC50 [3, 9] | IC50 [4] | IC50 [5, 10] | IC50 [7] | IC50 [1, 11] | IC50 [3, 12] | IC50 [5, 13] | IC50 [6] |
| --- | --- | --- | --- | --- | --- | --- | --- | --- | --- | --- |
| C[C@H]1COCCN1c1ccnc(-c2ccc(NC(=O)NCC(F)F)cc2)n1 [Example 54, (S)-1-(2,2-difluoroethyl)-3-(4-(4-(3-methylmorpholino)pyrimidin-2-yl)phenyl)urea] | ≥ 10 µM | ≥ 10 µM | ≥ 10 µM | ≥ 10 µM | 0.1 to 1 µM | ≥ 10 µM | ≥ 10 µM | ≥ 10 µM | 0.1 to 1 µM | 0.1 to 1 µM |
| C[C@H]1COCCN1c1cc(-c2cncc(F)c2)nc(-c2ccc(NC(=O)NCCO)cc2F)n1 [Example 65, (S)-1-(3-fluoro-4-(4-(5-fluoropyridin-3-yl)-6-(3-methylmorpholino)pyrimidin-2-yl)phenyl)-3-(2-hydroxyethyl)urea] | ≥ 10 µM | ≥ 10 µM | ≥ 10 µM | ≥ 10 µM | 0.1 to 1 µM | ≥ 10 µM | ≥ 10 µM | ≥ 10 µM | 0.1 to 1 µM | 0.1 to 1 µM |
| C[C@H]1COCCN1c1nc(-c2ccc(NC(=O)NCC(N)=O)cc2)cc(-c2cc(F)ccc2S(C)(=O)=O)n1 [Example 70, (S)-2-(3-(4-(6-(5-fluoro-2-(methylsulfonyl)phenyl)-2-(3-methylmorpholino)pyrimidin-4-yl)phenyl)ureido)acetamide] | ≥ 10 µM | ≥ 10 µM | ≥ 10 µM | ≥ 10 µM | 1 to 10 µM | ≥ 10 µM | ≥ 10 µM | ≥ 10 µM | 1 to 10 µM | 0.1 to 1 µM |
| C[C@H]1COCCN1c1cc(-c2ccncc2)nc(-c2ccc(NC(=O)NC3CC3)cc2)n1 [Example 25, (S)-1-cyclopropyl-3-(4-(4-(3-methylmorpholino)-6-(pyridin-4-yl)pyrimidin-2-yl)phenyl)urea] | ≥ 10 µM | ≥ 10 µM | ≥ 10 µM | ≥ 10 µM | 0.1 to 1 µM | ≥ 10 µM | ≥ 10 µM | ≥ 10 µM | 0.1 to 1 µM | 0.1 to 1 µM |
| C[C@H](CO)NC(=O)Nc1ccc(-c2cc(-c3cc(F)ccc3S(C)(=O)=O)nc(N3CCOC[C@@H]3C)n2)cc1 [Example 73, 1-(4-(6-(5-fluoro-2-(methylsulfonyl)phenyl)-2-((S)-3-methylmorpholino)pyrimidin-4-yl)phenyl)-3-((R)-1-hydroxypropan-2-yl)urea] | ≥ 10 µM | ≥ 10 µM | ≥ 10 µM | ≥ 10 µM | 0.1 to 1 µM | ≥ 10 µM | – | – | – | < 0.1 µM |
| C[C@H]1COCCN1c1cc(-c2cncc(F)c2)nc(-c2ccc(NC(=O)NC3CC3)cc2F)n1 [Example 63, (S)-1-cyclopropyl-3-(3-fluoro-4-(4-(5-fluoropyridin-3-yl)-6-(3-methylmorpholino)pyrimidin-2-yl)phenyl)urea] | ≥ 10 µM | ≥ 10 µM | ≥ 10 µM | ≥ 10 µM | 1 to 10 µM | ≥ 10 µM | ≥ 10 µM | ≥ 10 µM | 1 to 10 µM | 0.1 to 1 µM |
| CCS(=O)(=O)c1ccccc1-c1cc(-c2ccc(NC(=O)NC3CC3)cc2)nc(N2CCOC[C@@H]2C)n1 [Example 87, (S)-1-cyclopropyl-3-(4-(6-(2-(ethylsulfonyl)phenyl)-2-(3-methylmorpholino)pyrimidin-4-yl)phenyl)urea] | ≥ 10 µM | ≥ 10 µM | ≥ 10 µM | ≥ 10 µM | 0.1 to 1 µM | ≥ 10 µM | – | – | – | < 0.1 µM |
| C[C@H]1COCCN1c1nc(-c2ccc(NC(=O)NC3CC3)cc2)cc(-c2ccccc2S(=O)(=O)N2CCCC2)n1 [Example 88, (S)-1-cyclopropyl-3-(4-(2-(3-methylmorpholino)-6-(2-(pyrrolidin-1-ylsulfonyl)phenyl)pyrimidin-4-yl)phenyl)urea] | ≥ 10 µM | ≥ 10 µM | ≥ 10 µM | ≥ 10 µM | 1 to 10 µM | ≥ 10 µM | – | – | – | < 0.1 µM |

Continued, in another order:

| IC50 [1, 8] | IC50 [2] | IC50 [3, 9] | IC50 [4] | IC50 [5, 10] | IC50 [7] | IC50 [1, 11] | IC50 [3, 12] | IC50 [5, 13] | SMILES | IC50 [6] |
| --- | --- | --- | --- | --- | --- | --- | --- | --- | --- | --- |
| ≥ 10 µM | ≥ 10 µM | ≥ 10 µM | ≥ 10 µM | 1 to 10 µM | ≥ 10 µM | – | – | – | C[C@@H](O)CNC(=O)Nc1ccc(-c2cc(-c3cc(F)ccc3S(C)(=O)=O)nc(N3CCOC[C@@H]3C)n2)cc1 [Example 82] | < 0.1 µM |
| ≥ 10 µM | ≥ 10 µM | ≥ 10 µM | ≥ 10 µM | 0.1 to 1 µM | ≥ 10 µM | – | – | – | C[C@H](O)CNC(=O)Nc1ccc(-c2cc(-c3cc(F)ccc3S(C)(=O)=O)nc(N3CCOC[C@@H]3C)n2)cc1 [Example 83, 1-(4-(6-(5-fluoro-2-(methylsulfonyl)phenyl)-2-((S)-3-methylmorpholino)pyrimidin-4-yl)phenyl)-3-((S)-2-hydroxypropyl)urea] | < 0.1 µM |
| 1 to 10 µM | ≥ 10 µM | ≥ 10 µM | ≥ 10 µM | < 0.1 µM | ≥ 10 µM | 1 to 10 µM | ≥ 10 µM | < 0.1 µM | O=C(NCCO)Nc1ccc(-c2nccc(N3CC4CCC(C3)O4)n2)cc1 [Example 50, 1-(4-(4-(8-oxa-3-azabicyclo[3.2.1]octan-3-yl)pyrimidin-2-yl)phenyl)-3-(2-hydroxyethyl)urea] | 0.1 to 1 µM |
| 1 to 10 µM | ≥ 10 µM | ≥ 10 µM | ≥ 10 µM | 0.1 to 1 µM | ≥ 10 µM | 1 to 10 µM | ≥ 10 µM | 0.1 to 1 µM | CCNC(=O)Nc1ccc(-c2nccc(N3CC4CCC(C3)O4)n2)cc1 [Example 49, 1-(4-(4-(8-oxa-3-azabicyclo[3.2.1]octan-3-yl)pyrimidin-2-yl)phenyl)-3-ethylurea] | 0.1 to 1 µM |
| ≥ 10 µM | ≥ 10 µM | ≥ 10 µM | ≥ 10 µM | 1 to 10 µM | ≥ 10 µM | – | – | – | COC1CC(NC(=O)Nc2ccc(-c3cc(-c4cc(F)ccc4S(C)(=O)=O)nc(N4CCOC[C@@H]4C)n3)cc2)C1 (stereo partly drawn) [Example 79, (S)-1-(4-(6-(5-fluoro-2-(methylsulfonyl)phenyl)-2-(3-methylmorpholino)pyrimidin-4-yl)phenyl)-3-(3-methoxycyclobutyl)urea] | 0.1 to 1 µM |
| ≥ 10 µM | ≥ 10 µM | ≥ 10 µM | ≥ 10 µM | 0.1 to 1 µM | ≥ 10 µM | ≥ 10 µM | ≥ 10 µM | 0.1 to 1 µM | CCNC(=O)Nc1ccc(-c2cc(-c3ccccc3S(=O)(=O)N(C)C)nc(N3CCOC[C@@H]3C)n2)cc1 [Example 14, (S)-2-(6-(4-(3-ethylureido)phenyl)-2-(3-methylmorpholino)pyrimidin-4-yl)-N,N-dimethylbenzenesulfonamide] | 0.1 to 1 µM |
| 1 to 10 µM | ≥ 10 µM | ≥ 10 µM | ≥ 10 µM | 0.1 to 1 µM | 1 to 10 µM | 1 to 10 µM | ≥ 10 µM | 0.1 to 1 µM | O=C(Nc1ccc(-c2nccc(N3CCOCC3)n2)cc1)NC1CC1 [Example 26, 1-cyclopropyl-3-(4-(4-morpholinopyrimidin-2-yl)phenyl)urea] | 0.1 to 1 µM |
| ≥ 10 µM | ≥ 10 µM | ≥ 10 µM | ≥ 10 µM | 0.1 to 1 µM | ≥ 10 µM | ≥ 10 µM | ≥ 10 µM | 0.1 to 1 µM | C[C@H]1COCCN1c1cc(-c2cccnc2)nc(-c2ccc(NC(=O)NC3CC3)cc2)n1 [Example 3, (S)-1-cyclopropyl-3-(4-(4-(3-methylmorpholino)-6-(pyridin-3-yl)pyrimidin-2-yl)phenyl)urea] | < 0.1 µM |
| ≥ 10 µM | ≥ 10 µM | ≥ 10 µM | ≥ 10 µM | 0.1 to 1 µM | ≥ 10 µM | – | – | – | C[C@H]1COCCN1c1nc(-c2ccc(NC(=O)NC3(CO)CCC3)cc2)cc(-c2cc(F)ccc2S(C)(=O)=O)n1 [Example 75, (S)-1-(4-(6-(5-fluoro-2-(methylsulfonyl)phenyl)-2-(3-methylmorpholino)pyrimidin-4-yl)phenyl)-3-(1-(hydroxymethyl)cyclobutyl)urea] | 0.1 to 1 µM |
| 1 to 10 µM | ≥ 10 µM | ≥ 10 µM | ≥ 10 µM | 0.1 to 1 µM | ≥ 10 µM | 1 to 10 µM | ≥ 10 µM | 0.1 to 1 µM | O=C(NCCF)Nc1ccc(-c2nccc(N3CC4CCC(C3)O4)n2)cc1 [Example 52, 1-(4-(4-(8-oxa-3-azabicyclo[3.2.1]octan-3-yl)pyrimidin-2-yl)phenyl)-3-(2-fluoroethyl)urea] | 0.1 to 1 µM |
